Measured values from patent US20200199102A1, “COMPOUNDS THAT PARTICIPATE IN COOPERATIVE BINDING AND USES THEREOF” (Revolution Medicines, Inc., priority 2017, published 2020).
pIC50: −log10 of the molar value. Where a SMILES comes first, the peptide text is derived from it. [ ]: non-standard residue; d: D form. MeBmt = C/C=C/C[C@@H](C)[C@@H](O)[C@H](NC)C(=O)O; NMeY = CN[C@@H](Cc1ccc(O)cc1)C(=O)O; NMeF = CN[C@@H](Cc1ccccc1)C(=O)O; NMeI = CC[C@H](C)[C@H](NC)C(=O)O; NMeT = CN[C@H](C(=O)O)[C@@H](C)O; NMeL = CN[C@@H](CC(C)C)C(=O)O; dNMeV = CN[C@@H](C(=O)O)C(C)C; NMeNle = CCCC[C@H](NC)C(=O)O; Tle = CC(C)(C)[C@H](N)C(=O)O; NMeNva = CCC[C@H](NC)C(=O)O; NMeV = CN[C@H](C(=O)O)C(C)C; NMeA = CN[C@@H](C)C(=O)O; dNMeA = CN[C@H](C)C(=O)O; Abu = CC[C@H](N)C(=O)O; Sar = CNCC(=O)O

Molecular target: T1, Cyclophilin A (Homo sapiens, UniProt P62937)
T1 construct: made in house
Assay: AlphaLISA inhibition of binding of biotinylated Cyclosporin A to FLAG tagged Cyclophilin A
Conditions: for % signal: AlphaLISA signal; for % signal / % inhibition of CsA binding to Cyclophilin A: test concentration not given; for pIC50: read-out: IC50 value of CsA binding to Cyclophilin A
How it was run: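 Inhibition of biotin-CsA binding to FLAG-tagged Cyclophilin A read by AlphaLISA (ex 680, em 615 nm). Working stocks were 6 nM biotinylated CsA and 25 nM FLAG-CypA; beads and compound were combined first for 30 min, then protein added for 60 min, all at room temperature in the dark, with DMSO and cyclosporin A controls.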

T1 sequence (P62937 whole entry, species assumed): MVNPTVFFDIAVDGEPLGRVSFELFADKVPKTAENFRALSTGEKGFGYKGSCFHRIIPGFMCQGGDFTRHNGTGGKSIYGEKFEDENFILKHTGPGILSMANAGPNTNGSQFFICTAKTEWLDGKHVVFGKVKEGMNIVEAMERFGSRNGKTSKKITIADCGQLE

C/C=C/C[C@@H](C)[C@@H](O)[C@H]1C(=O)N[C@@H](CC)C(=O)N(C)CC(=O)N(C)CC(=O)N[C@@H](CC(C)C)C(=O)N(C)[C@@H](CC(C)C)C(=O)N[C@@H](CC(C)C)C(=O)N[C@H](C)C(=O)N(C)[C@@H](CC(C)C)C(=O)N(C)[C@@H](CC(C)C)C(=O)N(C)[C@@H](C(C)C)C(=O)N1C [Compound C61] (cyclo([MeBmt][Abu][Sar][Sar]L[NMeL]L[dA][NMeL][NMeL][NMeV]))
% signal: 14.38%
pIC50: > 5.70
% inhibition of CsA binding to Cyclophilin A: 85.62%

C/C=C/C[C@@H](C)[C@@H](O)[C@H]1C(=O)N[C@@H](CC)C(=O)N(C)CC(=O)N(C)[C@@H](C(C)C)C(=O)N[C@@H](C(C)C)C(=O)N(C)[C@@H](CC(C)C)C(=O)N[C@@H](CC)C(=O)N[C@H](C)C(=O)N(C)[C@@H](CC(C)C)C(=O)N(C)[C@@H](CC(C)C)C(=O)N(C)[C@@H](C(C)C)C(=O)N1C [Compound C101] (cyclo([Abu][Sar][NMeV]V[NMeL][Abu][dA][NMeL][NMeL][NMeV][MeBmt]))
% signal: 0.15%
pIC50: > 5.70
% inhibition of CsA binding to Cyclophilin A: 99.85%

C/C=C/C[C@@H](C)[C@@H](O)[C@H]1C(=O)N[C@@H](CC)C(=O)N(C)CC(=O)N(C)[C@@H](Cc2ccccc2)C(=O)N[C@@H](C(C)C)C(=O)N(C)CC(=O)N[C@@H](C)C(=O)N[C@H](C)C(=O)N(C)[C@@H](CC(C)C)C(=O)N(C)[C@@H](CC(C)C)C(=O)N(C)[C@@H](C(C)C)C(=O)N1C [Compound C27] (cyclo([MeBmt][Abu][Sar][NMeF]V[Sar]A[dA][NMeL][NMeL][NMeV]))
% signal: 5.27%
pIC50: > 5.70
% inhibition of CsA binding to Cyclophilin A: 94.73%

C/C=C/C[C@@H](C)[C@@H](O)[C@H]1C(=O)N[C@@H](CC)C(=O)N(C)CC(=O)N(C)[C@@H](C)C(=O)N[C@@H](C(C)C)C(=O)N(C)[C@@H](C)C(=O)N[C@@H](C)C(=O)N[C@H](C)C(=O)N(C)[C@@H](CC(C)C)C(=O)N(C)[C@@H](CC(C)C)C(=O)N(C)[C@@H](C(C)C)C(=O)N1C [Compound C2] (cyclo([MeBmt][Abu][Sar][NMeA]V[NMeA]A[dA][NMeL][NMeL][NMeV]))
% signal: 5.25%
pIC50: > 5.70
% inhibition of CsA binding to Cyclophilin A: 94.75%

C/C=C/C[C@@H](C)[C@@H](O)[C@H]1C(=O)N[C@@H](CC)C(=O)N(C)CC(=O)N(C)[C@@H](CCCC)C(=O)N[C@@H](C(C)C)C(=O)N(C)[C@@H](CC(C)C)C(=O)N[C@@H](CC(C)C)C(=O)N[C@H](C)C(=O)N(C)[C@@H](CC(C)C)C(=O)N(C)[C@@H](CC(C)C)C(=O)N(C)[C@@H](C(C)C)C(=O)N1C [Compound C56]
% signal: 2.44%
pIC50: > 5.70
% inhibition of CsA binding to Cyclophilin A: 97.56%

C/C=C/C[C@@H](C)[C@@H](O)[C@H]1C(=O)N[C@@H](CC)C(=O)N(C)CC(=O)N(C)[C@@H](CCC)C(=O)N[C@@H](C(C)C)C(=O)N(C)[C@@H](CC(C)C)C(=O)N[C@@H](CC)C(=O)N[C@H](C)C(=O)N(C)[C@@H](CC(C)C)C(=O)N(C)[C@@H](CC(C)C)C(=O)N(C)[C@@H](C(C)C)C(=O)N1C [Compound C102] (cyclo([Abu][Sar][NMeNva]V[NMeL][Abu][dA][NMeL][NMeL][NMeV][MeBmt]))
% signal: 0.70%
pIC50: > 5.70

C/C=C/C[C@@H](C)[C@@H](O)[C@H]1C(=O)N[C@@H](CC)C(=O)N(C)CC(=O)N(C)[C@@H]([C@@H](C)CC)C(=O)N[C@@H](C(C)C)C(=O)N(C)[C@@H](C)C(=O)N[C@@H](CC(C)C)C(=O)N[C@H](C)C(=O)N(C)[C@@H](CC(C)C)C(=O)N(C)[C@@H](CC(C)C)C(=O)N(C)[C@@H](C(C)C)C(=O)N1C [Compound C81] (cyclo([MeBmt][Abu][Sar][NMeI]V[NMeA]L[dA][NMeL][NMeL][NMeV]))
% signal: 0.76%
pIC50: > 5.70
% inhibition of CsA binding to Cyclophilin A: 99.24%

C/C=C/C[C@@H](C)[C@@H](O)[C@H]1C(=O)N[C@@H](CC)C(=O)N(C)CC(=O)N(C)[C@@H]([C@@H](C)O)C(=O)N[C@@H](CC(C)C)C(=O)N(C)[C@@H](CC(C)C)C(=O)N[C@@H](CC(C)C)C(=O)N[C@H](C)C(=O)N(C)[C@@H](CC(C)C)C(=O)N(C)[C@@H](CC(C)C)C(=O)N(C)[C@@H](C(C)C)C(=O)N1C [Compound C63] (cyclo([MeBmt][Abu][Sar][NMeT]L[NMeL]L[dA][NMeL][NMeL][NMeV]))
% signal: 4.64%
pIC50: > 5.70
% inhibition of CsA binding to Cyclophilin A: 95.36%

C/C=C/C[C@@H](C)[C@@H](O)[C@H]1C(=O)N[C@@H](CC)C(=O)N(C)CC(=O)N(C)[C@@H]([C@@H](C)O)C(=O)N[C@@H](C)C(=O)N(C)CC(=O)N[C@@H](C)C(=O)N[C@H](C)C(=O)N(C)[C@@H](CC(C)C)C(=O)N(C)[C@@H](CC(C)C)C(=O)N(C)[C@@H](C(C)C)C(=O)N1C [Compound C23] (cyclo([MeBmt][Abu][Sar][NMeT]A[Sar]A[dA][NMeL][NMeL][NMeV]))
% signal: 1.28%
pIC50: > 5.70
% inhibition of CsA binding to Cyclophilin A: 98.72%

C/C=C/C[C@@H](C)[C@@H](O)[C@H]1C(=O)N[C@@H](CC)C(=O)N(C)CC(=O)N(C)[C@@H](CCCC)C(=O)N[C@@H](C(C)(C)C)C(=O)N(C)[C@@H](C)C(=O)N[C@@H](CC(C)C)C(=O)N[C@H](C)C(=O)N(C)[C@@H](CC(C)C)C(=O)N(C)[C@@H](CC(C)C)C(=O)N(C)[C@@H](C(C)C)C(=O)N1C [Compound C80] (cyclo([MeBmt][Abu][Sar][NMeNle][Tle][NMeA]L[dA][NMeL][NMeL][NMeV]))
% signal: 3.35%
pIC50: > 5.70
% inhibition of CsA binding to Cyclophilin A: 96.65%

C/C=C/C[C@@H](C)[C@@H](O)[C@H]1C(=O)N[C@@H](CC)C(=O)N(C)CC(=O)N(C)[C@H](C)C(=O)N[C@@H](C(C)(C)C)C(=O)N(C)[C@@H](C)C(=O)N[C@@H](CC(C)C)C(=O)N[C@H](C)C(=O)N(C)[C@@H](CC(C)C)C(=O)N(C)[C@@H](CC(C)C)C(=O)N(C)[C@@H](C(C)C)C(=O)N1C [Compound C71] (cyclo([MeBmt][Abu][Sar][dNMeA][Tle][NMeA]L[dA][NMeL][NMeL][NMeV]))
% signal: −0.05%
pIC50: > 5.70
% inhibition of CsA binding to Cyclophilin A: 100.05%

C/C=C/C[C@@H](C)[C@@H](O)[C@H]1C(=O)N[C@@H](CC)C(=O)N(C)CC(=O)N(C)[C@@H](C)C(=O)N[C@@H](CC(C)C)C(=O)N(C)[C@@H](C)C(=O)N[C@@H](C)C(=O)N[C@H](C)C(=O)N(C)[C@@H](CC(C)C)C(=O)N(C)[C@@H](CC(C)C)C(=O)N(C)[C@@H](C(C)C)C(=O)N1C [Compound C10] (cyclo([MeBmt][Abu][Sar][NMeA]L[NMeA]A[dA][NMeL][NMeL][NMeV]))
% signal: 0.56%
pIC50: > 5.70
% inhibition of CsA binding to Cyclophilin A: 99.44%

C/C=C/C[C@@H](C)[C@@H](O)[C@H]1C(=O)N[C@@H](CC)C(=O)N(C)CC(=O)N(C)[C@@H](C)C(=O)N[C@@H](CC(C)C)C(=O)N(C)[C@@H](CC(C)C)C(=O)N[C@@H](CC(C)C)C(=O)N[C@H](C)C(=O)N(C)[C@@H](CC(C)C)C(=O)N(C)[C@@H](CC(C)C)C(=O)N(C)[C@@H](C(C)C)C(=O)N1C [Compound C58] (cyclo([MeBmt][Abu][Sar][NMeA]L[NMeL]L[dA][NMeL][NMeL][NMeV]))
% signal: 3.28%
pIC50: > 5.70
% inhibition of CsA binding to Cyclophilin A: 96.72%

C/C=C/C[C@@H](C)[C@@H](O)[C@H]1C(=O)N[C@@H](CC)C(=O)N(C)CC(=O)N(C)[C@@H](CCC)C(=O)N[C@@H](C(C)C)C(=O)N(C)[C@@H](CC(C)C)C(=O)N[C@@H](CC(C)C)C(=O)N[C@H](C)C(=O)N(C)[C@@H](CC(C)C)C(=O)N(C)[C@@H](CC(C)C)C(=O)N(C)[C@@H](C(C)C)C(=O)N1C [Compound C54] (cyclo([MeBmt][Abu][Sar][NMeNva]V[NMeL]L[dA][NMeL][NMeL][NMeV]))
% signal: 0.90%
pIC50: > 5.70
% inhibition of CsA binding to Cyclophilin A: 99.10%

C/C=C/C[C@@H](C)[C@@H](O)[C@H]1C(=O)N[C@@H](CC)C(=O)N(C)CC(=O)N(C)[C@H](C(C)C)C(=O)N[C@@H](CC(C)C)C(=O)N(C)[C@@H](CC(C)C)C(=O)N[C@@H](CC(C)C)C(=O)N[C@H](C)C(=O)N(C)[C@@H](CC(C)C)C(=O)N(C)[C@@H](CC(C)C)C(=O)N(C)[C@@H](C(C)C)C(=O)N1C [Compound C67] (cyclo([MeBmt][Abu][Sar][dNMeV]L[NMeL]L[dA][NMeL][NMeL][NMeV]))
% signal: 40.86%
pIC50: > 5.70
% inhibition of CsA binding to Cyclophilin A: 59.14%

C/C=C/C[C@@H](C)[C@@H](O)[C@H]1C(=O)N[C@@H](CC)C(=O)N(C)CC(=O)N(C)[C@@H](Cc2ccc(O)cc2)C(=O)N[C@@H](C(C)C)C(=O)N(C)CC(=O)N[C@@H](C)C(=O)N[C@H](C)C(=O)N(C)[C@@H](CC(C)C)C(=O)N(C)[C@@H](CC(C)C)C(=O)N(C)[C@@H](C(C)C)C(=O)N1C [Compound C32] (cyclo([MeBmt][Abu][Sar][NMeY]V[Sar]A[dA][NMeL][NMeL][NMeV]))
% signal: 0.14%
pIC50: > 5.70
% inhibition of CsA binding to Cyclophilin A: 99.86%

C/C=C/C[C@@H](C)[C@@H](O)[C@H]1C(=O)N[C@@H](CC)C(=O)N(C)CC(=O)N(C)[C@@H]([C@@H](C)CC)C(=O)N[C@@H](CC(C)C)C(=O)N(C)[C@@H](CC(C)C)C(=O)N[C@@H](CC(C)C)C(=O)N[C@H](C)C(=O)N(C)[C@@H](CC(C)C)C(=O)N(C)[C@@H](CC(C)C)C(=O)N(C)[C@@H](C(C)C)C(=O)N1C [Compound C57] (cyclo([MeBmt][Abu][Sar][NMeI]L[NMeL]L[dA][NMeL][NMeL][NMeV]))
% signal: 0.15%
pIC50: > 5.70
% inhibition of CsA binding to Cyclophilin A: 99.85%

C/C=C/C[C@@H](C)[C@@H](O)[C@H]1C(=O)N[C@@H](CC)C(=O)N(C)CC(=O)N(C)CC(=O)N[C@@H](C(C)C)C(=O)N(C)[C@@H](CC(C)C)C(=O)N[C@@H](CC(C)C)C(=O)N[C@H](C)C(=O)N(C)[C@@H](CC(C)C)C(=O)N(C)[C@@H](CC(C)C)C(=O)N(C)[C@@H](C(C)C)C(=O)N1C [Compound C49] (cyclo([MeBmt][Abu][Sar][Sar]V[NMeL]L[dA][NMeL][NMeL][NMeV]))
% signal: 19.41%
pIC50: > 5.70
% inhibition of CsA binding to Cyclophilin A: 80.59%
